Results on 3 molecules are retold here after PMC10350917 (Journal of Medicinal Chemistry, 2023).

The test system of series [1] is ADC-212 in pBCSK(−) E. coli DH10B. Briefly: Broth microdilution AST, ADC-212. In kind it is cell-based. The conditions noted are these: for MIC: Escherichia coli, E. coli DH10B ADC-212, MB076 fixed at 10 mg/L in combinations, FDC in iron-depleted broth. The procedure:
(§1) Susceptibility testing to standard antibiotics was performed by broth microdilution or agar dilution using an Oxoid replicator according to 2021 Clinical and Laboratory Standards Institute (CLSI) guidelines. MICs for CAZ, CTX, FEP, and TOL were determined using cation-adjusted Mueller Hinton MH broth, and MICs for FDC were done in iron-depleted cation-adjusted MH broth according to CLSI methods. MB076, S02030, and VAB were used at a fixed concentration of 10 mg/L. All MICs were interpreted according to the 2021 CLSI guidelines.[43]
(§2) blaADC-7 pBCSK- was cloned and expressed in E. coli DH10B cells as previously described.[44] All other blaADC variants were synthesized by GenScript according to the blaADC-7 pBCSK- strategy, cloning into the XbaI/BamHI sites of the pBCSK- vector.
On the technique in general: Dilution methods test growth across graded concentrations, often in twofold steps.

A short description of the next series: physchem. Particulars: buffer, pH 7.4. As for the experimental part: (§3) The in vitro stability of MB076 and S02030 was evaluated by incubating the compounds in both buffer (pH 7.4) and human plasma at 37 °C over 48 h. Half-lives (t1/2) were then calculated for each compound.
(§4) Plasma and buffer stability samples were analyzed by monitoring the disappearance of the compounds using high-performance liquid chromatography-mass spectrometry (LC–MS) techniques.
Standard solutions were prepared by adding the compound in DMSO (2.5 μM) to 0.1 M phosphate buffer pH 7.4 and MeOH. Solutions were vortexed, filtered, and analyzed by LC–MS (At=0). Samples were then prepared by adding a solution of the compound in DMSO (2.5 μM) to phosphate buffer pH 7.4 and incubating at 37 °C. At suitable time intervals, the reaction was stopped by the addition of MeOH. The solutions were vortexed and filtered. Degradation time courses were followed by LC–MS enabling the quantitation of compounds. Half-lives (t1/2) were calculated in Origin using a one-phase decay model with t1/2 = ln(2)/b, where b is the slope of a linear plot of natural logarithm (ln) of the remaining compound concentration (C) versus incubation time. Each condition was tested in triplicate.

A further series is described as follows: in vitro. The conditions noted are these: human, plasma, pH 7.4. The procedure:
as §3, §4
Half-lives (t1/2) were calculated in Origin using a one-phase decay model with t1/2 = ln(2)/b, where b is the slope of a linear plot of natural logarithm (ln) of the remaining compound concentration (C) versus incubation time. Each condition was tested in triplicate.

Another series has as its target ADC variants. Briefly: Inhibition kinetics, statement for all ADC variants. It is filed as biochemical, Acinetobacter baumannii. The conditions noted are these: bound stated for all ADC variants of the study. As for the experimental part: (§5) For inhibition kinetics, utilizing nitrocefin (NCF) as a colorimetric substrate, the inhibition constant (Ki) of MB076 and S02030 BATSI with ADCs was determined using competition kinetics as previously described.[10],[25],[28],[34] The measurements of the initial velocities were performed with the addition of 100 μM NCF after a 3 min pre-incubation of the enzyme (2 nM) with increasing concentration of the inhibitor. […] The Ki value was corrected for the NCF affinity (KM values for each ADC variant listed in Table 1) with the Cheng–Prusoff[35] equation: [drawing 2]

In series [2] the target is T1, ADC-30 (Acinetobacter baumannii, UniProt A7XM81). In words: Inhibition kinetics (competition with nitrocefin), ADC-30. In kind it is biochemical. The conditions noted are these: 100 μM nitrocefin, 3 min pre-incubation. The procedure:
as §5

Series [3] addresses T2, ADC-33 (Acinetobacter baumannii, UniProt A7Y407). In words: Inhibition kinetics (competition with nitrocefin), ADC-33. In kind it is biochemical. Particulars: 100 μM nitrocefin, 3 min pre-incubation. As for the experimental part: as §5
In series [4] the target is T3, ADC-7 (Acinetobacter baumannii, UniProt Q6DRA1). In words: Inhibition kinetics (competition with nitrocefin), ADC-7. It is filed as biochemical. The conditions noted are these: 100 μM nitrocefin, 3 min pre-incubation, Cheng–Prusoff corrected. As for the experimental part: as §5
In series [5] the target is T4, ADC-162 (Acinetobacter baumannii, UniProt A0A2H4PPJ8). In words: Inhibition kinetics (competition with nitrocefin), ADC-162. In kind it is biochemical. The procedure:
as §5

Series [6] deals with ADC-33 in pBCSK(−) E. coli DH10B. Briefly: Agar dilution AST, ADC-33. In kind it is cell-based. As for the experimental part:
as §1, §2
On the technique in general: In agar dilution the substance is mixed into plates at graded concentrations.

Series [7] concerns ADC-30 in pBCSK(−) E. coli DH10B. Briefly: Broth microdilution AST, ADC-30. In kind it is cell-based. The conditions noted are these: Escherichia coli, E. coli DH10B ADC-30, MB076 fixed at 10 mg/L in combinations, FDC in iron-depleted broth. As for the experimental part:
as §1, §2

The subject of series [8] is ADC-7 in pBCSK(−) E. coli DH10B. In words: Broth microdilution AST, ADC-7. It is filed as cell-based. Particulars: Escherichia coli, E. coli DH10B ADC-7, MB076 fixed at 10 mg/L in combinations, FDC in iron-depleted broth. The procedure: as §1, §2
In series [9] the test system is ADC-33 in pBCSK(−) E. coli DH10B. Briefly: Broth microdilution AST, ADC-33. It is filed as cell-based. Particulars: Escherichia coli, E. coli DH10B ADC-33, MB076 fixed at 10 mg/L in combinations, FDC in iron-depleted broth. The procedure: as §1, §2
Series [10] concerns ADC-219 in pBCSK(−) E. coli DH10B. Briefly: Broth microdilution AST, ADC-219. It is filed as cell-based. Particulars: Escherichia coli, E. coli DH10B ADC-219, MB076 fixed at 10 mg/L in combinations, FDC in iron-depleted broth. As for the experimental part:
as §1, §2

A further series concerns the target ADC-212 (Acinetobacter baumannii, UniProt A8QIF8, A224D/INS243L/P244A). In kind it is biochemical. Particulars: substrate. The procedure: (§6) Steady-state kinetic parameters were determined by combining pure enzyme with antibiotic substrates in 50 mM NaH2PO4, pH 7.4 at room temperature. Changes in absorbance were measured on a Cary 60 UV–Vis spectrophotometer (Agilent Technologies) and converted to velocity using the change in extinction coefficient specific to nitrocefin (ε482 = 17,400 M^–1·cm^–1), cephalothin (ε262 = 7660 M^–1·cm^–1), ceftazidime (ε260 = 8660 M^–1·cm^–1), cefotaxime (ε260 = 7500 M^–1·cm^–1), cefepime (ε260 = 750 M^–1·cm^–1), cefiderocol (ε259 = 9430 M^–1·cm^–1), and ceftolozane (ε254 = 6810 M^–1·cm^–1). Initial velocities were fit to the Michaelis–Menten equation yielding kcat and KM values. For ADC/substrate combinations in which the KM was too large to accurately determine both kcat and KM values, the initial velocities at kcat/KM values were calculated from linear fits of vo in low [S] ranges (<0.08 × KM).

In the next series the target is ADC-219 (Acinetobacter baumannii, UniProt A7Y407, G248D). In kind it is biochemical. Particulars: substrate. The procedure:
as §6

For series [11], the target named is T1, ADC-30. The procedure:
as §6

In series [12] the target is T2, ADC-33. The procedure:
as §6

The target of series [13] is T4, ADC-162. The conditions noted are these: substrate. As for the experimental part: as §6
Series [14] deals with T3, ADC-7. The procedure: as §6
The subject of series [15] is ADC-7 in pBCSK(−) E. coli DH10B. Briefly: Agar dilution AST, ADC-7. In kind it is cell-based. The conditions noted are these: Escherichia coli, E. coli DH10B ADC-7, MB076, S02030, VAB fixed at 10 mg/L. As for the experimental part:
as §1, §2

Series [16] has as its system ADC-219 in pBCSK(−) E. coli DH10B. Briefly: Agar dilution AST, ADC-219. It is filed as cell-based. The conditions noted are these: Escherichia coli, E. coli DH10B ADC-219, MB076, S02030, VAB fixed at 10 mg/L. The procedure: as §1, §2
Series [17] relates to ADC-162 in pBCSK(−) E. coli DH10B. In words: Agar dilution AST, ADC-162. In kind it is cell-based. The conditions noted are these: Escherichia coli. The procedure:
as §1, §2

The subject of series [18] is ADC-212 in pBCSK(−) E. coli DH10B. Briefly: Agar dilution AST, ADC-212. It is filed as cell-based. The conditions noted are these: Escherichia coli, E. coli DH10B ADC-212, MB076, S02030, VAB fixed at 10 mg/L. The procedure:
as §1, §2

The test system of series [19] is ADC-30 in pBCSK(−) E. coli DH10B. In words: Agar dilution AST, ADC-30. It is filed as cell-based. Particulars: Escherichia coli, E. coli DH10B ADC-30, MB076, S02030, VAB fixed at 10 mg/L. As for the experimental part: as §1, §2

Where two headings read alike, the source gives them in different places.

As a reminder, the half-life is how long it takes for the measured level to halve. High values mean slow loss, low ones fast loss. As a reminder, the Ki is the dissociation constant of the complex between target and ligand, obtained from inhibition or displacement. Lower therefore signals a stronger hold on the target. For the molecule `Nc1nnc(SCC(=O)N[C@@H](Cn2cc(C(=O)O)nn2)B(O)O)s1` [MB076, (R)-1-(2-(2-((5-Amino-1,3,4-thiadiazol-2-yl)thio)acetamido)-2-boronoethyl)-1H-1,2,3-triazole-4-carboxylic Acid], the “reduction of the CTX MIC by MB076” value in [1] (ADC-212, MB076 10 mg/L) was found to be 3 fold doubling dilution. Moreover, the half-life in “physchem” was 33 h. For the same molecule, the half-life at 2.5 μM in “in vitro” is 29 h. Further, the Ki on ADC variants was less than 1000 nM; at ADC-30 [2], 58 ± 5 nM; on ADC-33 [3] it was 100 ± 4 nM; at ADC-7 [4], 210 ± 16 nM; on ADC-162 [5], 790 ± 39 nM. Moreover, in [6] (ADC-33 variant, inhibitors 10 mg/L), the “increase of susceptibility to CAZ relative to S02030” value came out at 3 fold.

One may read the MIC as the lowest concentration found to suppress growth. As a reminder, the Km is the concentration of substrate that gives half-maximal velocity. In the case of `CO/N=C(\C(=O)N[C@@H]1C(=O)N2C(C(=O)O)=C(COC(C)=O)CS[C@H]12)c1csc(N)n1` [cefotaxime], the MIC in series [7] stood at 64 µg/mL; in series [1] it was 128 µg/mL; in [8] it was 64 µg/mL; in series [9], 128 µg/mL; in series [10] it was 16 µg/mL. Besides, the kcat stood at 12.0 s^–1 on ADC-212; 44.2 s^–1 on ADC-219; 0.12 s^–1 on ADC-30 [11]; 0.46 s^–1 at ADC-33 [12]; 25.4 s^–1 at ADC-162 [13]; 0.048 s^–1 on ADC-7 [14]. The Michaelis-Menten constant (Km) on ADC-30 [11] (ADC-30, substrate, 50 mM NaH2PO4 pH 7.4, room temperature) was found to be 4.35 ± 1.81 µM; at ADC-33 [12] (ADC-33, substrate, 50 mM NaH2PO4 pH 7.4, room temperature) it was 7.11 ± 1.05 µM; at ADC-162 [13] (50 mM NaH2PO4 pH 7.4, room temperature) it was 115 µM; at ADC-7 [14] (ADC-7, substrate, 50 mM NaH2PO4 pH 7.4, room temperature) it was 1.23 ± 0.17 µM.

With `CC(C)(O/N=C(\C(=O)N[C@@H]1C(=O)N2C(C(=O)[O-])=C(C[n+]3ccccc3)CS[C@H]12)c1csc(N)n1)C(=O)O` [ceftazidime], the MIC in series [7] turned out to be 128 µg/mL; in series [15] it was 64 µg/mL; in [16] it was 64 µg/mL; in series [1], 512 µg/mL; in series [8], 64 µg/mL; in series [17] it was 128 µg/mL. Besides, the minimal inhibitory concentration (MIC) in series [18] amounted to 256 µg/mL; in [9], 2050 µg/mL; in series [10], 256 µg/mL; in [19] it was 64 µg/mL; in series [6] (Escherichia coli, E. coli DH10B ADC-33, MB076, S02030, VAB fixed at 10 mg/L), 1020 µg/mL. Also, the kcat on ADC-33 [12] (ADC-33, substrate) was determined as 3.71 s^–1.
